Assays:
Type in all cases: binding
[1] = biological target: T1, IstA–IstB–STC holo-transpososome (Geobacillus stearothermophilus, UniProt Q45618+Q45619, Q45619:E167Q, form not given); assay: cryo-EM structure, […] Å; conditions: assembled with 1 mM ATP, 5 mM MgCl2, pH 7.5, strand-transfer DNA; internal IstB-IstB sites (e.g. 1b)
T1 construct: full-length IstB (His6-MBP cleaved) with full-length IstA (C-terminal MBP-His6 cleaved by TEV), E. coli; in the structure one IstA tetramer, two IstB decamers and strand-transfer DNA, about 1 MDa; IstA Glu209/Tyr213 contact the nucleotide of IstB 1a/1a'

[2] = biological target: T2, IstB (Geobacillus stearothermophilus, UniProt Q45619); assay: cryo-EM structure, […] Å; conditions: 5 mM MgCl2, 1 mM ATP, pH 7.5, 60 bp target DNA; eight complete sites at IstB-IstB interfaces
T2 construct: full-length; His6-MBP tag cleaved (PreScission); E. coli BL21 codon-plus (DE3) RIL; pentamer of dimers (decamer) on 60 bp target DNA

[3] = biological target: T1, IstA–IstB–STC holo-transpososome; assay: cryo-EM structure, focused refinement of core, […] Å; conditions: assembled with 1 mM ATP, 5 mM MgCl2, pH 7.5, strand-transfer DNA; IstB monomers 1a and 1a' contacting IstA

Structure (SMILES) | cryo-EM structure, 3.6 Å [1] | cryo-EM structure, 3.2 Å [2] | cryo-EM structure, focused refinement of core, 3.2 Å [3]
Nc1ncnc2c1ncn2[C@@H]1O[C@H](COP(=O)(O)OP(=O)(O)OP(=O)(O)O)[C@@H](O)[C@H]1O [ATP] | other subunits (1b, bound to ATP, shown on the right for comparison) | Close inspection of the EM map showed clear density maps for ATP in all binding pockets | 
Nc1ncnc2c1ncn2[C@@H]1O[C@H](COP(=O)(O)OP(=O)(O)O)[C@@H](O)[C@H]1O [ADP] |  |  | revealed that the density in these active sites is most consistent with ADP
